According to US12016884B2, “Adipose derived stem cell exosomes and uses thereof” (UNIVERSITY OF SOUTH FLORIDA, priority 2016, dated 2024):
“Also recorded” adds a separate entry of the source.

Test system: human dermal fibroblast (HDF) cells
Assay: ECIS (electric cell-substrate impedance sensing) wound healing assay
Format: cell-based
Conditions: Dynasore about 50 μM added to media with 20 μg exosomes (FIG. 9)
Experimental: ECIS assays: The ECIS or electric cell-substrate impedance sensing instrument (Applied Biophysics) recorded the impedance on electrically wounded hHDF to detect the migratory response. Briefly, 200 μl of cell suspension were seeded per well of 8W1E ECIS array (5×10^4 cells per well) coated with about 1% gelatin. After cells were confluent in the incubator, the ECIS chambers were mounted to the ECIS system. […] Arrays were then washed with medium under the microscope to remove any dead cells on the electrodes. Thereafter, the wound healing process was determined in real-time by measuring the recovery of electrical impedance, an indicator of the surrounding viable fibroblast cells migrating into the wounded area. […]
Briefly, HDF cells on the micro-electrods of the ECIS wells were killed with a high electrical voltage. Subsequently, the migration of viable cells onto the wounded microelectrodes was measured in real-time by electrical resistance in the presence of bFGF ([…]), about 10 μg/mL exosomes, and about 20 μg/mL exosome respectively. The percentage of recovery was calculated by the difference in the resistance of each time point and the resistance of the first time point after wounding divided by the resistance before the wounding. […]

O=C(N/N=C/c1ccc(O)c(O)c1)c1cc2ccccc2cc1O [Dynasore]
effect on exosome-driven cell migration in ECIS: blocked the cell migratory effect of exosomes; also recorded: greatly attenuate cell migration; also recorded: inhibition of migration
